# Read-outs that look alike come from different tables or passages of the source.
# Legend:
# [1] = target: BACE 1 (Beta Secretase enzyme) (Homo sapiens, UniProt P56817); assay: In vitro enzymatic BACE FRET assay; assay type: biochemical
# Method in brief: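 BACE activity read by FRET: peptide substrate (50 nM) carrying fluorophore and quencher across the cleavage site, incubated one hour in 0.05 M acetate pH 4.2, 10% DMSO final, 100 uM genapol. Tris addition raises pH to neutrality to stop the reaction before fluorescence is read.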
# [2] = tested on: Aβ40 in conditioned medium of cells stably expressing Amyloid Precursor Protein (APP); assay: In vitro BACE cell-based assay (HEK cell assay), Aβ40 sandwich ELISA
# Method in brief: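 Cells stably expressing APP received 10-point compound dilutions (top 100 μM or 10 μM; 0.1% DMSO) for 24 h. Secreted Aβ40 was quantified by sandwich ELISA (pAb40 capture, biotinylated 6E10 detection, europium time-resolved fluorescence). IC50 was derived from percent inhibition versus concentration.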
# [3] = IC50 range symbols, Table 1, read-out: BACE 1 FRET assay
# [4] = IC50 range symbols, Table 1, Aβ40, 24 h incubation, read-out: HEK cell assay
# [5] = Homo sapiens, HEK293, 24 h, IC50 range symbols, Table 1, Aβ40, 24 h incubation, read-out: HEK cell assay
# [6] = bound stated, read-out: IC50 value in the FRET BACE enzyme assay
# [7] = Homo sapiens, HEK293, bound stated in text, read-out: IC50 value in the BACE cell-based in-vitro assay
# Chain of BACE 1 (Beta Secretase enzyme) (P56817 46-501, species assumed): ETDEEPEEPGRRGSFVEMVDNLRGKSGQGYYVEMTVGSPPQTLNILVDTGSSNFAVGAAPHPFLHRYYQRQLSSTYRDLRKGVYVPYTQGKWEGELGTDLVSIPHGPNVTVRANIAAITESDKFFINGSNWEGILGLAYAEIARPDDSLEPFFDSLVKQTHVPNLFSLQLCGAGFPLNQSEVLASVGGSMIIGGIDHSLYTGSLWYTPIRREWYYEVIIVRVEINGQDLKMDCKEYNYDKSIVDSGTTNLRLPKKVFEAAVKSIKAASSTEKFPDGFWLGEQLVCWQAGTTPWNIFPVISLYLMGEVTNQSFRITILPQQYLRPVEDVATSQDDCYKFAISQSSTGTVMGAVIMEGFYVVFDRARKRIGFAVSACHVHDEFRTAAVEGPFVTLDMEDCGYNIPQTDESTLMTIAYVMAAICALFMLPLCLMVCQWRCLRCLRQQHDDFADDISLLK
"IC50 [1, 3] [nM]","IC50 [2, 4] [nM]","IC50 [2, 5] [nM]","IC50 [1, 6] [nM]","IC50 [2, 7] [nM]",Compound
< 500,1000 to 5000,–,–,–,"Cc1ccccc1-c1ccc2nc(N)c(CC(C)C(=O)N[C@H](C)c3ccccc3OC(F)F)cc2c1 (stereo partly drawn) [Example 130, 3-(2-amino-6-o-tolylquinolin-3-yl)-N-((R)-1-(2-(difluoromethoxy)phenyl)ethyl)-2-methylpropanamide]"
< 500,1000 to 5000,–,–,–,"Cc1ccccc1-c1ccc2nc(N)c(CCC(=O)N[C@H](C)c3cccnc3)cc2c1 [Example 131, (R)-3-(2-amino-6-o-tolylquinolin-3-yl)-N-(1-(pyridin-3-yl)ethyl)propanamide]"
1000 to 5000,–,> 5000,–,–,"Cc1cccnc1-c1ccc2nc(N)c(CCC(=O)N[C@H](C)c3cccnc3)cc2c1 [Example 132, (R)-3-(2-amino-6-(3-methylpyridin-2-yl)quinolin-3-yl)-N-(1-(pyridin-3-yl)ethyl)propanamide]"
1000 to 5000,–,> 5000,–,–,"Cc1cccnc1-c1ccc2nc(N)c(CCC(=O)N[C@H](C)c3ccccc3OC(F)F)cc2c1 [Example 133, (R)-3-(2-amino-6-(3-methylpyridin-2-yl)quinolin-3-yl)-N-(1-(2-(difluoromethoxy)phenyl)ethyl)propanamide]"
1000 to 5000,–,> 5000,–,–,"Cc1ccccc1-c1ccc2nc(N)c(CCC(=O)N3CCC(F)(F)C3)cc2c1 [Example 134, 3-(2-amino-6-o-tolylquinolin-3-yl)-1-(3,3-difluoropyrrolidin-1-yl)propan-1-one]"
< 500,–,> 5000,< 50,–,"Cc1ccccc1-c1cc2cc(CCC(=O)NCCC(C)(C)C)c(N)nc2cn1 [Example 135, 3-(2-amino-6-o-tolyl-1,7-naphthyridin-3-yl)-N-(3,3-dimethylbutyl)propanamide]"
< 500,–,1000 to 5000,< 50,–,"Cc1ccccc1-c1cc2cc(CC(C)C(=O)NCc3ccccc3)c(N)nc2cn1 (centres unmarked) [Example 136, 3-(2-amino-6-o-tolyl-1,7-naphthyridin-3-yl)-N-benzyl-2-methylpropanamide]"
< 500,–,> 5000,–,–,"Cc1ccccc1-c1cc2cc(CC(C)C(=O)NCCC(F)(F)F)c(N)nc2cn1 (centres unmarked) [Example 137, 3-(2-amino-6-o-tolyl-1,7-naphthyridin-3-yl)-2-methyl-N-(3,3,3-trifluoropropyl)propanamide]"
< 500,–,< 500,< 50,–,"Cc1ccccc1-c1cc2cc(CC(C)C(=O)NCCC(C)(C)C)c(N)nc2cn1 (centres unmarked) [Example 138, 3-(2-amino-6-o-tolyl-1,7-naphthyridin-3-yl)-N-(3,3-dimethylbutyl)-2-methylpropanamide]"
1000 to 5000,–,> 5000,–,–,"Cc1ccccc1-c1ccc2nc(N)c(CCC(=O)NCc3ccnnc3)cc2c1 [Example 139, 3-(2-amino-6-o-tolylquinolin-3-yl)-N-(pyridazin-4-ylmethyl)propanamide]"
< 500,–,1000 to 5000,–,–,"Cc1ccccc1-c1ccc2nc(N)c(CCC(=O)NCC3CCCCC3)nc2c1 [Example 140, 3-(3-amino-7-(2-methylphenyl)-2-quinoxalinyl)-N-(cyclohexylmethyl)propanamide]"
< 500,–,500 to 1000,–,–,"Cc1ccccc1-c1ccc2nc(N)c(CCC(=O)NCCC(C)(C)O)cc2c1 [Example 141, 3-(2-amino-6-(2-methylphenyl)-3-quinolinyl)-N-(3-hydroxy-3-methylbutyl)propanamide]"
< 500,–,< 500,–,–,"CC(Cc1cc2cc(-c3ccccc3C#N)ccc2nc1N)C(=O)NC1CCOC(C)(C)C1 (centres unmarked) [Example 142, 3-(2-amino-6-(2-cyanophenyl)-3-quinolinyl)-N-(2,2-dimethyltetrahydro-2H-pyran-4-yl)-2-methylpropanamide]"
< 500,–,< 500,–,–,"CC(=O)c1ccccc1-c1ccc2nc(N)c(CC(C)C(=O)NC3CCOC(C)(C)C3)cc2c1 (centres unmarked) [Example 143, 3-(6-(2-acetylphenyl)-2-amino-3-quinolinyl)-N-(2,2-dimethyltetrahydro-2H-pyran-4-yl)-2-methylpropanamide]"
1000 to 5000,–,1000 to 5000,–,–,"Cc1ccccc1-c1ccc2nc(N)c(CCC(=O)NCC(C)(C)O)cc2c1 [Example 144, 3-(2-amino-6-(2-methylphenyl)-3-quinolinyl)-N-(2-hydroxy-2-methylpropyl)propanamide]"
< 500,–,< 500,–,–,"CC(Cc1cc2cc(-c3ccccc3C(=O)C3CCCCC3)ccc2nc1N)C(=O)NC1CCOC(C)(C)C1 (centres unmarked) [Example 147, 3-(2-amino-6-(2-(cyclohexylcarbonyl)phenyl)-3-quinolinyl)-N-(2,2-dimethyltetrahydro-2H-pyran-4-yl)-2-methylpropanamide]"

"IC50 [1, 3] [nM]","IC50 [2, 4] [nM]","IC50 [2, 5] [nM]","IC50 [1, 6] [nM]","IC50 [2, 7] [nM]",Compound
< 500,–,< 500,–,–,"CNC(=O)C(C)Cc1cc2cc(-c3c(C)cccc3C(=O)N3CCCC3)ccc2nc1N (centres unmarked) [Example 148, 3-(2-Amino-6-(2-methyl-6-(pyrrolidine-1-carbonyl)phenyl)quinolin-3-yl)-N, 2-dimethylpropanamide]"
< 500,–,< 500,–,–,"Cc1cccc(C(=O)N2CCCC2)c1-c1ccc2nc(N)c(CC(C)C(=O)NCc3ccccn3)cc2c1 (centres unmarked) [Example 149, 3-(2-amino-6-(2-methyl-6-(pyrrolidine-1-carbonyl)phenyl)quinolin-3-yl)-2-methyl-N-(pyridin-2-ylmethyl)propanamide]"
< 500,–,< 500,–,–,"Cc1cccc(C(=O)N2CCCC2)c1-c1ccc2nc(N)c(CC(C)C(=O)NC3CC3)cc2c1 (centres unmarked) [Example 150, 3-(2-amino-6-(2-methyl-6-(pyrrolidine-1-carbonyl)phenyl)quinolin-3-yl)-N-cyclopropyl-2-methylpropanamide]"
< 500,–,< 500,–,–,"Cc1cccc(C(=O)N2CCCC2)c1-c1ccc2nc(N)c(CC(C)C(=O)NCc3ccccc3)cc2c1 (centres unmarked) [Example 151, 3-(2-amino-6-(2-methyl-6-(pyrrolidine-1-carbonyl)phenyl)quinolin-3-yl)-N-benzyl-2-methylpropanamide]"
< 500,–,< 500,–,–,"CC(=O)c1ccccc1-c1ccc2nc(N)c(CC(C)C(=O)Nc3ccccc3)cc2c1 (centres unmarked) [Example 152, 3-(6-(2-acetylphenyl)-2-aminoquinolin-3-yl)-2-methyl-N-phenylpropanamide]"
< 500,–,< 500,< 50,< 100,"Cc1cccc(C(=O)N2CCCC2)c1-c1ccc2nc(N)c(CC(C)C(=O)Nc3ccccc3)cc2c1 (centres unmarked) [Example 153, 3-(2-amino-6-(2-methyl-6-(pyrrolidine-1-carbonyl)phenyl)quinolin-3-yl)-2-methyl-N-phenylpropanamide]"
> 5000,–,> 5000,–,–,"CNC(=O)C(C)Cc1cc2cc(-c3ccccc3C(C)=O)ccc2nc1N (centres unmarked) [Example 154, 3-(6-(2-acetylphenyl)-2-aminoquinolin-3-yl)-N,2-dimethylpropanamide]"
1000 to 5000,–,1000 to 5000,–,–,"CNC(=O)[C@@H](C)Cc1cc2cc(-c3c(C)cccc3C(=O)N3CCCC3)ccc2nc1N [Example 155, (S) 3-(2-amino-6-(2-methyl-6-(pyrrolidine-1-carbonyl)phenyl)quinolin-3-yl)-N,2-dimethylpropanamide]"
< 500,–,500 to 1000,–,–,"CNC(=O)C(C)Cc1cc2cc(-c3ccccc3C(=O)C3CCCCC3)ccc2nc1N (centres unmarked) [Example 157, 3-(2-amino-6-(2-(cyclohexanecarbonyl)phenyl)quinolin-3-yl)-N,2-dimethylpropanamide]"
< 500,–,< 500,–,–,"Cc1ccccc1-c1ccc2nc(N)c(C[C@@H](C)C(=O)NC3CCOC(C)C3)cc2c1 (stereo partly drawn) [Example 158, (2R)-3-(2-amino-6-o-tolylquinolin-3-yl)-2-methyl-N-(2-methyltetrahydro-2H-pyran-4-yl)propanamide]"
< 500,–,< 500,–,–,"CC(Cc1cc2cc(-c3cccc(Cl)c3Cl)ccc2nc1N)C(=O)NC1CCOC(C)(C)C1 (centres unmarked) [Example 159, 3-(2-amino-6-(2,3-dichlorophenyl)quinolin-3-yl)-N-(2,2-dimethyltetrahydro-2H-pyran-4-yl)-2-methylpropanamide]"
< 500,–,< 500,–,–,"C#CC1CC(NC(=O)[C@H](C)Cc2cc3cc(-c4ccccc4C)ccc3nc2N)CCO1 (stereo partly drawn) [Example 160, (R)-3-(2-amino-6-o-tolylquinolin-3-yl)-N-(cis-2-ethynyltetrahydro-2H-pyran-4-yl)-2-methylpropanamide]"
< 500,–,< 500,–,–,"CC(Cc1cc2cc(-c3cccc(Cl)c3Cl)ccc2nc1N)C(=O)NC1CCOC2(CCC2)C1 (centres unmarked) [Example 161, 3-(2-amino-6-(2,3-dichlorophenyl)quinolin-3-yl)-2-methyl-N-(5-oxaspiro[3.5]nonan-8-yl)propanamide]"
< 500,–,< 500,–,–,"Cc1ccccc1-c1ccc2nc(N)c(C[C@@H](C)C(=O)NC3CCCC(C)(C)C3)cc2c1 (stereo partly drawn) [Example 162, (2R)-3-(2-amino-6-(2-methylphenyl)-3-quinolinyl)-N-(3,3-dimethylcyclohexyl)-2-methylpropanamide]"
< 500,–,< 500,–,< 100,"Cc1ccccc1-c1ccc2nc(N)c(CCC(=O)NC3CCOC(C)(C)C3)cc2c1 (centres unmarked) [Example 163, 3-(2-amino-6-(2-methylphenyl)-3-quinolinyl)-N-(-2,2-dimethyltetrahydro-2H-pyran-4-yl)propanamide]"
